Reference: ChEMBL document CHEMBL1201862, “PubChem BioAssay data set” (2004)
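Five concentrations, 48 hours, 96-well plates. Abbreviation: GI50, concentration required for 50% inhibition of growth.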 Active and inactive are the calls of the source. Rule as the data show it: active = GI50 up to about 1.1 µM and inactive = higher.

Experiments:
Experiment in all cases: DTP human tumour cell line panel, 48 h
PC-3 = tested on: PC-3
KM12 = tested on: KM12
HCC 2998 = tested on: HCC 2998
TK-10 = tested on: TK-10
786-0 = tested on: 786-0
UACC-257 = tested on: UACC-257
U-251 = tested on: U-251
HCT-15 = tested on: HCT-15
CCRF-CEM = tested on: CCRF-CEM
RXF 393 = tested on: RXF 393
SF-539 = tested on: SF-539
CAKI-1 = tested on: CAKI-1
OVCAR-4 = tested on: OVCAR-4
COLO 205 = tested on: COLO 205
HOP-62 = tested on: HOP-62
SR = tested on: SR
HL-60 = tested on: HL-60
Hs-578T = tested on: Hs-578T
SW-620 = tested on: SW-620
NCI-H226 = tested on: NCI-H226
SN12C = tested on: SN12C
SNB-75 = tested on: SNB-75
RPMI-8226 = tested on: RPMI-8226
OVCAR-5 = tested on: OVCAR-5
T47D = tested on: T47D
OVCAR-3 = tested on: OVCAR-3
ACHN = tested on: ACHN
SK-MEL-5 = tested on: SK-MEL-5
UACC-62 = tested on: UACC-62
HCT-116 = tested on: HCT-116
SK-OV-3 = tested on: SK-OV-3
A549 = tested on: A549
IGROV-1 = tested on: IGROV-1
DU-145 = tested on: DU-145
NCI-H460 = tested on: NCI-H460
SF-268 = tested on: SF-268
NCI/ADR-RES = tested on: NCI/ADR-RES
K562 = tested on: K562
MDA-MB-231 = tested on: MDA-MB-231
A498 = tested on: A498
LOX IMVI = tested on: LOX IMVI
NCI-H23 = tested on: NCI-H23
SNB-19 = tested on: SNB-19
NCI-H522 = tested on: NCI-H522
Malme-3M = tested on: Malme-3M
HOP-92 = tested on: HOP-92
MDA-N = tested on: MDA-N
MCF7 = tested on: MCF7
HT-29 = tested on: HT-29
MOLT-4 = tested on: MOLT-4
SK-MEL-28 = tested on: SK-MEL-28
MDA-MB-435 = tested on: MDA-MB-435
SF-295 = tested on: SF-295
EKVX = tested on: EKVX
OVCAR-8 = tested on: OVCAR-8
M14 = tested on: M14

Measured: GI50

COc1cc(C(=O)Oc2c(C#N)sc3c2c(=O)n(-c2ccccc2)c(=S)n3-c2ccccc2)cc(OC)c1OC
inactive: PC-3 17.1 µM | KM12 18.9 µM | HCC 2998 19.6 µM | TK-10 27.7 µM | 786-0 15.2 µM | UACC-257 35.2 µM | U-251 12.5 µM | CCRF-CEM 4.72 µM | RXF 393 8.99 µM | SF-539 4.71 µM | CAKI-1 21.2 µM | OVCAR-4 26.4 µM | COLO 205 15.8 µM | HOP-62 19.5 µM | SR > 100 µM | HL-60 18.8 µM | Hs-578T 8.26 µM | SW-620 24.2 µM | NCI-H226 4.73 µM | SN12C 13.8 µM | SNB-75 14.4 µM | RPMI-8226 9.08 µM | OVCAR-5 17.6 µM | T47D 25.5 µM | OVCAR-3 22.7 µM | ACHN 8.87 µM | SK-MEL-5 17.3 µM | UACC-62 24.1 µM | HCT-116 16.3 µM | SK-OV-3 22 µM | A549 21.5 µM | IGROV-1 19.1 µM | DU-145 19.8 µM | NCI-H460 21.9 µM | SF-268 14.3 µM | NCI/ADR-RES 16.6 µM | K562 23.5 µM | MDA-MB-231 20.8 µM | A498 4.1 µM | LOX IMVI 19.9 µM | NCI-H23 18.1 µM | SNB-19 11.6 µM | Malme-3M 9.14 µM | HOP-92 14.6 µM | MDA-N 20.2 µM | MCF7 22.9 µM | HT-29 3.4 µM | MOLT-4 16.6 µM | SK-MEL-28 14.2 µM | MDA-MB-435 15.1 µM | SF-295 4.14 µM | EKVX 19.3 µM | OVCAR-8 10.9 µM | M14 12.8 µM
active: NCI-H522 0.361 µM
18.9 µM: HCT-15

Cc1coc2c1[C@@H](O)[C@@]1(C)[C@H](CCC[C@@H]1C)C2
23.8 µM: HCT-15
inactive: PC-3 36.5 µM | KM12 85.3 µM | HCC 2998 42.4 µM | TK-10 > 100 µM | 786-0 34.8 µM | UACC-257 33 µM | CCRF-CEM 37.6 µM | RXF 393 18.2 µM | SF-539 21.5 µM | CAKI-1 72.6 µM | OVCAR-4 58.7 µM | COLO 205 22.6 µM | HOP-62 40.5 µM | SR 21.6 µM | HL-60 23.7 µM | Hs-578T 61.7 µM | SW-620 37.8 µM | NCI-H226 25.5 µM | SN12C 24.7 µM | RPMI-8226 31.8 µM | OVCAR-5 67 µM | T47D 31.4 µM | OVCAR-3 23.9 µM | ACHN 33.8 µM | SK-MEL-5 49.9 µM | UACC-62 56.2 µM | HCT-116 33.5 µM | SK-OV-3 48.4 µM | IGROV-1 54.6 µM | DU-145 37 µM | NCI-H460 45.5 µM | SF-268 34.6 µM | NCI/ADR-RES 24.8 µM | K562 26.9 µM | MDA-MB-231 27.2 µM | LOX IMVI 43.4 µM | NCI-H23 50.9 µM | SNB-19 72.9 µM | NCI-H522 25.3 µM | Malme-3M 30 µM | HOP-92 51.2 µM | MDA-N 20.7 µM | MCF7 > 100 µM | HT-29 42.8 µM | MOLT-4 24.8 µM | SK-MEL-28 48.2 µM | MDA-MB-435 15.1 µM | SF-295 45 µM | EKVX 69 µM | OVCAR-8 22.4 µM | M14 18.2 µM
